This is an account of results in US20090042848A1, “COPPER COMPLEXES” (priority 2005, published 2009).

“Also recorded” adds a separate entry of the source.

Series [1] deals with carrageenan-induced paw edema. The series can be described thus: Inhibition of carrageenan-induced paw edema (rat paw oedema assay). It counts as in vivo, Sprague-Dawley rats. As to conditions: oral. (In general: In the carrageenan paw model, swelling and tenderness develop within hours.)
In another series the test system is stomach. The series can be described thus: Acute macroscopic gastric damage after oral dosing. It counts as in vivo, Sprague-Dawley rats. As to conditions: for Gastric Ulceration / macroscopic gastric ulcerations (in words, FIG. 8(1)): oral; for macroscopic gastric ulcerations (in words, FIG. 8(1)): IndoH 10 mg/kg or equimolar Indo dose in 2% (w/v) CMC solution. On the procedure:
Rats were fasted with access to water for 24 h prior to dosing and 3 hours post dosing. Three hours after administration of the test compound, the rats were euthanased and the stomach was excised and opened by incision along the greater curvature.
After the aforementioned anti-inflammatory activity experiments, the rats were immediately euthanased. Similarly, the stomach was excised and opened by incision along the greater curvature for the examination of the macroscopic ulcerations (mm^2).
Since there were no significant differences in the results obtained by the two methods, the results shown in FIG. 8(1) are those of the two methods combined.

The next series relates to small intestine. The note with it: oral.
For series [2] the following is noted: oral administration; cited from earlier work.
Setting [3] is: 10 mg/kg of Indo dispersed in MCT paste.
Setting [4] is: 1 mg/kg of Indo dispersed in MCT paste.
Setting [5] is: 2 mg/kg of Indo dispersed in MCT paste.

`COc1ccc2c(c1)c(CC(=O)O)c(C)n2C(=O)c1ccc(Cl)cc1` [IndoH, Indomethacin, reference compound]: the Inhibition % in series [1] (setting [3]) was 54 ± 12%. Besides, the “Gastric Ulceration” value in the series with stomach (setting [3]) was determined as 115 ± 30 mm^2. In addition, in the series with small intestine (setting [3]), the “Small Intestine Ulceration (mm^2)” value is recorded as 80 ± 7 mm^2.
In the case of `CN(C)C=O.CN(C)C=O.COc1ccc2c(c1)c(CC(=O)[O-])c(C)n2C(=O)c1ccc(Cl)cc1.COc1ccc2c(c1)c(CC(=O)[O-])c(C)n2C(=O)c1ccc(Cl)cc1.COc1ccc2c(c1)c(CC(=O)[O-])c(C)n2C(=O)c1ccc(Cl)cc1.COc1ccc2c(c1)c(CC(=O)[O-])c(C)n2C(=O)c1ccc(Cl)cc1.[Cu+2].[Cu+2]` [[Cu2(Indo)4(DMF)2], bis(N,N-dimethylformamide)tetrakis-μ-(O,O′-Indo)dicopper(II) complex], the “gastrointestinal toxicity compared with indomethacin (in words)” value in series [2] is “less gastrointestinal toxicity than indomethacin”. Further, the “macroscopic gastric ulcerations (in words, FIG. 8(1))” value (shortened to “macroscopic gastric ulcerations”) with stomach was “significant reductions (P<0.01) in gastric ulcerations as compared to those induced by IndoH”. Also, in the series with small intestine (equimolar Indo dose (10 mg/kg IndoH) in 2% (w/v) CMC solution, 24 h after dosing), the “small intestinal toxicity / ulceration (in words, FIG. 8(2))” value is given as “low small intestinal toxicity”.
As to “Bis(η^1-O-Indo)tris(pyridine)copper(II) [[Cu(Indo)2(Py)3], reference compound]”, the “efficacy in reducing inflammation (in words, FIG. 9)” value in series [1] (equimolar Indo dose (10 mg/kg IndoH) in 2% (w/v) CMC solution) was “as effective as [Cu2(Indo)4(DMF)2] in reducing inflammation”. The “macroscopic gastric ulcerations” value in the series on stomach was “no significant difference in the gastric ulcerations induced by [Cu(Indo)2(Py)3] or IndoH”.
In the case of “Bis(η^2-O,O′-Indo)bis(pyrrolidine)copper(II)-2-pyrrolidine monohydrate [[Cu(Indo)2(Pyrro)2]]”, the “macroscopic gastric ulcerations” value in the series with stomach (monohydrate) was “significant reductions (P<0.01) in gastric ulcerations as compared to those induced by IndoH; also recorded: significant reduction in gastric ulceration compared with [Cu2(Indo)4(DMF)2]”. The molecule also registered an average gastric ulceration with stomach (second experiment, different sample precipitated from solution with diethyl ether, four rats, same dose of Indo) of 21 mm^2.
For the molecule “bis(η^2-O,O′-Indo)bis(4-picoline)copper(II) [[Cu(Indo)2(4-pic)2]]”, the Inhibition % is on record as 28% in series [1] (setting [4]), 54% in series [1] (setting [5]), 16% in series [1] (2 mg/kg of Indo in 2% CMC) and 57 ± 19% in series [1] (setting [3]).
As for “bis(η^2-O,O′-Indo)bis(imidazole)copper(II) [[Cu(Im)2(Indo)2]]”, the Inhibition % amounted to 31% in series [1] (setting [4]), 39% in series [1] (setting [5]), 11% in series [1] (2 mg/kg of Indo in 2% CMC) and 45 ± 16% in series [1] (setting [3]). Besides, the “Gastric Ulceration” value is reported as 2 ± 2 mm^2 in the series on stomach (setting [4]), 3 ± 42 mm^2 in the series on stomach (setting [5]), 3 ± 3 mm^2 with stomach (2 mg/kg of Indo in 2% CMC) and 55 ± 42 mm^2 in the series with stomach (setting [3]).
